In patent publication US20220175693A1, “DIETARY SUPPLEMENT COMPRISING LUTEIN FOR TELOMERE PROTECTION, AND METHOD FOR PRODUCTION THEREOF” (BIOGEN EXTRACTS PRIVATE LIMITED, priority 2019, published 2022):

System: human adult primary fibroblast cells
Experiment: Telomere length by Telomere Analysis Technology (HT Q-FISH) and telomere shortening rate
Type: cell-based
Excerpt: A high-throughput (HT) Q-FISH technique was used. This method is based on a quantitative fluorescence in-situ hybridization method modified for cells in interphase2. In brief, telomeres are hybridized with a fluorescent Peptide Nucleic Acid probe (PNA) that recognizes three telomere repeats. The images of the nuclei and telomeres are captured by a high-content screen system. The intensity of the fluorescent signal from the telomeric PNA probes that hybridize to a given telomere is proportional to the length of that telomere. The intensities of fluorescence are translated to base pairs through a standard regression curve which is generated using control cell lines with known telomere length.
Sample Preparation and HT Q-FISH: On processing day, the samples and control cell lines frozen in liquid nitrogen are thawed at 37° C. and cell counts and cellular viability are determined. Aliquots with viability lower than 60% are considered below our QC standards and are not further analyzed. Cells are seeded in clear bottom black-walled 384-well plates at 15,000 cells per well in 5 replicates for each sample and 8 replicates for each control cell line.
Cells are fixed with methanol/acetic acid (3/1, vol/vol). Once these cells have fixed onto the plate, they are treated with pepsin to digest the cytoplasm and the nuclei are processed for in situ hybridization with the PNA probe. After several washing steps following standard DAPI incubation for DNA staining, the wells are filled up with mounting medium and the plate is stored overnight at 4° C.
HT Microscopy: Quantitative image acquisition and analysis is performed on a High Content Screening Opera System. Images are captured, using a 40×0.95 NA water immersion objective. UV and 488 nm excitation wavelengths are used to detect the DAPI and A488 signals respectively. With constant exposure settings, 15 independent images are captured at different positions for each well. Next, the nuclei images are used to define the region of interest for each cell, measuring telomere fluorescence intensity of the A488 image in all of them. The results of intensity for each foci are exported to the Columbus 2.4 software. Telomere length distribution and median telomere length are calculated with Life Length's proprietary program.
Median telomere length, 20th percentile telomere length, percentage of short telomeres and the coefficients of variation for each set of samples. The percentage of short telomeres is defined as the percentage of those below 3 Kbp (<3 Kbp). As mentioned earlier, measurements in five replicates per sample were performed.
For TAT analysis, data were grouped by condition (Ctrl, H2O2, LUT10, LUT5, LUT1, LUT10+H2O2, LUT5+H2O2, LUT1+H2O2) and time point of treatment (0, 4, and 8 weeks).
Due to the fact that DNA replication during the cell cycle causes of telomere shortening, the telomere length measurements performed were normalized by the total number of population doubling (cell replication) in each condition and week.
Telomere shortening rate was analysed, Median of telomere length (initial-final)/Population Doubling, at the defined time points and treatments, FIG. 8.
Graph of telomere length vs Population doubling at different treatments. Slope of regression line in each condition, represents the telomere shortening rate. Y=aX+b; a=slope andbb=y intercept, FIG. 9.

[1] = Lutein 1 μg/ml + 10 μM H2O2, week 4 (P4)
[2] = Lutein 1 μg/ml + 10 μM H2O2, week 8 (P8)
[3] = Lutein 1 μg/ml, standard culture, week 4 (P4)
[4] = Lutein 1 μg/ml, standard culture, week 8 (P8)
[5] = Lutein 5 μg/ml + 10 μM H2O2, week 4 (P4)
[6] = Lutein 5 μg/ml + 10 μM H2O2, week 8 (P8)
[7] = Lutein 5 μg/ml, standard culture, week 4 (P4)
[8] = Lutein 5 μg/ml, standard culture, week 8 (P8)
[9] = Lutein 10 μg/ml + 10 μM H2O2, week 4 (P4)
[10] = Lutein 10 μg/ml + 10 μM H2O2, week 8 (P8)
[11] = Lutein 10 μg/ml, standard culture, week 4 (P4)
[12] = Lutein 10 μg/ml, standard culture, week 8 (P8)

Structure (SMILES): CC1=C[C@H](O)CC(C)(C)[C@H]1/C=C/C(C)=C/C=C/C(C)=C/C=C/C=C(C)/C=C/C=C(C)/C=C/C1=C(C)C[C@@H](O)CC1(C)C [Lutein]
- Telomere shortening rate versus control (Lutein 1 μg/ml (LUT1), standard conditions, 8 weeks): significant increase
- Median Telomere Length (Table 7A) (Lutein 1 μg/ml + 10 μM H2O2, week 4): 5980 bp
- 20th Percentile Length (telomere, TAT) [1]: 3381 base pairs
- Median Length (telomere, TAT) [1]: 5997 base pairs
- Telomere shortening rate (Median of telomere length (initial-final)/Population Doubling) [1]: 111 bp/PD
- Telomeres <3 Kbp (percentage of short telomeres) [1]: 16.72%
- Median Telomere Length (Table 7A) (Lutein 1 μg/ml + 10 μM H2O2, week 8): 6045 bp
- 20th Percentile Length (telomere, TAT) [2]: 2848 base pairs
- Median Length (telomere, TAT) [2]: 6037 base pairs
- Telomere shortening rate (Median of telomere length (initial-final)/Population Doubling) [2]: 63 bp/PD
- Telomeres <3 Kbp (percentage of short telomeres) [2]: 21.14%
- Slope (Telomere Shortening Rate) of regression line, telomere length vs Population doubling (Lutein 1 μg/ml + 10 μM H2O2, weeks 0-8): y = −66.365x + 7187.3
- Median Telomere Length (Table 7A) (Lutein 1 μg/ml, standard culture, week 4): 5984 bp
- 20th Percentile Length (telomere, TAT) [3]: 3351 base pairs
- Median Length (telomere, TAT) [3]: 5977 base pairs
- Telomere shortening rate (Median of telomere length (initial-final)/Population Doubling) [3]: 100 bp/PD
- Telomeres <3 Kbp (percentage of short telomeres) [3]: 16.87%
- Median Telomere Length (Table 7A) (Lutein 1 μg/ml, standard culture, week 8): 6071 bp
- 20th Percentile Length (telomere, TAT) [4]: 2848 base pairs
- Median Length (telomere, TAT) [4]: 6077 base pairs
- Telomere shortening rate (Median of telomere length (initial-final)/Population Doubling) [4]: 53 bp/PD
- Telomeres <3 Kbp (percentage of short telomeres) [4]: 21.29%
- Slope (Telomere Shortening Rate) of regression line, telomere length vs Population doubling (Lutein 1 μg/ml, standard culture, weeks 0-8): y = −55.261x + 7163.8
- Median Telomere Length (Table 7A) (Lutein 5 μg/ml + 10 μM H2O2, week 4): 6085 bp
- 20th Percentile Length (telomere, TAT) [5]: 3351 base pairs
- Median Length (telomere, TAT) [5]: 6077 base pairs
- Telomere shortening rate (Median of telomere length (initial-final)/Population Doubling) [5]: 93 bp/PD
- Telomeres <3 Kbp (percentage of short telomeres) [5]: 16.97%
- Median Telomere Length (Table 7A) (Lutein 5 μg/ml + 10 μM H2O2, week 8): 5980 bp
- 20th Percentile Length (telomere, TAT) [6]: 2977 base pairs
- Median Length (telomere, TAT) [6]: 5977 base pairs
- Telomere shortening rate (Median of telomere length (initial-final)/Population Doubling) [6]: 59 bp/PD
- Telomeres <3 Kbp (percentage of short telomeres) [6]: 20.09%
- Slope (Telomere Shortening Rate) of regression line, telomere length vs Population doubling (Lutein 5 μg/ml + 10 μM H2O2, weeks 0-8): y = −61.587x + 7222
- Median Telomere Length (Table 7A) (Lutein 5 μg/ml, standard culture, week 4): 6340 bp
- 20th Percentile Length (telomere, TAT) [7]: 3104 base pairs
- Median Length (telomere, TAT) [7]: 6349 base pairs
- Telomere shortening rate (Median of telomere length (initial-final)/Population Doubling) [7]: 80 bp/PD
- Telomeres <3 Kbp (percentage of short telomeres) [7]: 18.98%
- Median Telomere Length (Table 7A) (Lutein 5 μg/ml, standard culture, week 8): 6177 bp
- 20th Percentile Length (telomere, TAT) [8]: 2945 base pairs
- Median Length (telomere, TAT) [8]: 6037 base pairs
- Telomere shortening rate (Median of telomere length (initial-final)/Population Doubling) [8]: 55 bp/PD
- Telomeres <3 Kbp (percentage of short telomeres) [8]: 20.51%
- Slope (Telomere Shortening Rate) of regression line, telomere length vs Population doubling (Lutein 5 μg/ml, standard culture, weeks 0-8): y = −56.796x + 7261.1
- Median Telomere Length (Table 7A) (Lutein 10 μg/ml + 10 μM H2O2, week 4): 5804 bp
- 20th Percentile Length (telomere, TAT) [9]: 3073 base pairs
- Median Length (telomere, TAT) [9]: 5772 base pairs
- Telomere shortening rate (Median of telomere length (initial-final)/Population Doubling) [9]: 118 bp/PD
- Telomeres <3 Kbp (percentage of short telomeres) [9]: 19.10%
- Median Telomere Length (Table 7A) (Lutein 10 μg/ml + 10 μM H2O2, week 8): 5972 bp
- 20th Percentile Length (telomere, TAT) [10]: 2977 base pairs
- Median Length (telomere, TAT) [10]: 5977 base pairs
- Telomere shortening rate (Median of telomere length (initial-final)/Population Doubling) [10]: 66 bp/PD
- Telomeres <3 Kbp (percentage of short telomeres) [10]: 20.09%
- Slope (Telomere Shortening Rate) of regression line, telomere length vs Population doubling (Lutein 10 μg/ml + 10 μM H2O2, weeks 0-8): y = −71.479x + 7181.9
- Median Telomere Length (Table 7A) (Lutein 10 μg/ml, standard culture, week 4): 6272 bp
- 20th Percentile Length (telomere, TAT) [11]: 3198 base pairs
- Median Length (telomere, TAT) [11]: 6330 base pairs
- Telomere shortening rate (Median of telomere length (initial-final)/Population Doubling) [11]: 81 bp/PD
- Telomeres <3 Kbp (percentage of short telomeres) [11]: 18.48%
- Median Telomere Length (Table 7A) (Lutein 10 μg/ml, standard culture, week 8): 6008 bp
- 20th Percentile Length (telomere, TAT) [12]: 2977 base pairs
- Median Length (telomere, TAT) [12]: 5997 base pairs
- Telomere shortening rate (Median of telomere length (initial-final)/Population Doubling) [12]: 56 bp/PD
- Telomeres <3 Kbp (percentage of short telomeres) [12]: 20.21%
- Slope (Telomere Shortening Rate) of regression line, telomere length vs Population doubling (Lutein 10 μg/ml, standard culture, weeks 0-8): y = −57.039x + 7250
- Telomere shortening rate compared to control (H2O2) (Lutein 10, 5 and 1 μg/ml + 10 μM H2O2, after 8 passages): significant difference
- Effect on telomere length erosion in vitro (oxidative stress conditions, after 8 passages): significant protective effect
- Telomere analysis versus control, other differences (treated groups in standard conditions (LUT10, LUT5, LUT1), 8 weeks): No other significant differences
